Test results reported in patent US6551793B1, “Carotenoid-associated proteins useful for high carotenoid accumulation and production in plants and other organisms” (Yissum Research Development Company of the Hebrew …, priority 1996, dated 2003).

Experiments:
Format in all cases: cell-based, Cucumis sativus
[1] = tested on: CHRD; experiment: In vitro flower bud culture, Western blot of CHRD in corollas; conditions: flower buds cultured for 72 hours
Procedure: CHRD levels in corollas were analyzed by western blotting (10 μg of total protein per lane) using antibodies against CHRD and horseradish peroxidase anti-rabbit IgG in an enhanced chemiluminescence detection system. FIG. 14B is a Western blot analysis of corollas (50 μg of total protein per lane) cultured for the indicated periods with (+) or without (−) GA3. The blot was decorated with antibodies against CHRD and alkaline phosphatase anti-rabbit 1 gG.
In FIG. 15A, antibodies against CHRD or CHRC were used in a western blot analysis of CHRD and CHRC levels, respectively, in corollas cultured for 72 hours in the presence (E) or absence (C) of ethylene (50 μg of total protein per lane). In FIG. 15B, flowers were enclosed in aluminum foil in the greenhouse for 3 days and CHRD levels in etiolated (D) and control, nonetiolated (L) corollas were analyzed by western blotting (50 μg of total protein per lane).
(§1) This example describes plant material and conditions for in vitro flower bud culture. C. sativus L. plants (cultivar Shimahon, obtained from Zeraim Gadera, Israel) were grown under standard greenhouse conditions. In vitro culture of flower buds was performed at 23° C., under constant light from cool white fluorescent lamps with a photosynthetic photon flux density of 80 μmol/m^2 g, as described previously. Briefly, buds at developmental stage 1 (˜8 mm in length, 120 hours before anthesis) were collected and rinsed several times with sterile water. Buds were then placed for 24 hours on a perforated Parafilm (American National Can, Greenwich, Conn.) covering a Petri dish filled with double-distilled sterile water, such that only the bases of the buds were in contact with the liquid. Following equilibration, buds were transferred to a fresh Petri dish (zero time for the experiments) and treated with GA3, ABA, paclobutrazol, or CHX, as specified in the figure legends.
CHRD protein was isolated from Cucumis sativus as a minor component, immunologically characterised and analyzed in terms of the regulation of its expression by developmental signals using methods and conditions described above for CHRC. […] Carotenoids are known to accumulate in dark.

[2] = tested on: CHRC mRNA; experiment: In vitro flower bud culture, Northern blot of CHRC mRNA in corollas; conditions: 10 μM ABA
[3] = tested on: Psy mRNA; experiment: In vitro flower bud culture, Northern blot of Psy mRNA in corollas; conditions: 100 μM ABA or 100 μg/ml paclobutrazol, 2 hours of treatment
Procedure: (§2) Young flower buds were cultured in vitro in the presence (GA) or the absence (C) of 100 μM GA3 for up to 48 hours. Northern and Western blot analyses of corollas, cultured for the indicated periods of time, were performed. The Northern blots (25 μg total RNA/lane) were hybridized with ^32P-labeled DNA inserts from CHRC (CHRC), […] (Psy), and 18s rDNA (18S). Western blot analysis (bottom panel of A) was performed using antibodies against CHRC protein (25 μg total protein/lane). The results of the CHRC Northern blot analyses are also shown graphically relative to the mRNA level of the untreated corollas at zero time (0) (arbitrary value of 1).
(§3) Flower buds were cultured in the presence of 100 μm GA3 (GA), 100 μg/ml paclobutrazol following 2 hours of pretreatment with 100 μg/ml paclobutrazol (P), 100 μg/ml paclobutrazol +100 μm GA3 following 2 hours of pretreatment with 100 μg/ml paclobutrazol (P/GA), 100 μM ABA (ABA), or no phytohormones (C). Total RNA was extracted from corollas after 2 hours of treatment. Northern blot analyses were performed and probed as described in the legend to FIG. 7.
(§4) Total RNA and protein were extracted from cucumber corollas of flower buds cultured for 6 hours in the presence of 100 μM GA3 (GA), 50 μM CHX following 2 hours of pretreatment with 50 μM CHX (CHX/GA), or no phytohormones (C). Northern (CHRC, Psy, and 18S) and Western (bottom panel) blot analyses were performed as described above.
as §1, with “Following equilibration, buds were transferred to a fresh Petri dish (zero time for the experiments) and treated with GA3, ABA, paclobutrazol, or CHX, as specified in the figure legends.” left out
This example describes conditions used for RNA isolation and Northern blot analysis. […] Autoradiograms were quantified by scanning suitably exposed films in a densitometer (Molecular Dynamics, Sunnyvale, Calif.). The amount of RNA loaded onto the gels was standardized by optical measurement, by quantitation of the ethidium bromide fluorescence of cytoplasmic rRNA. and by the level of hybridization with a DNA fragment coding for cytoplasmic 18S RNA.

[4] = tested on: CHRC mRNA; experiment: In vitro flower bud culture, Northern blot of CHRC mRNA in corollas; conditions: 100 μM ABA, 2 hours
Procedure: as §2, §3, §4
In FIG. 10, flower buds were cultured for 2 hours without (0) or with various concentrations of GA3. Total RNA was isolated from corollas, and a Northern blot was probed as above. The results of the CHRC Northern blot analyses are also shown graphically relative to the mRNA level of control corollas cultured without GA3 (arbitrary value of 1).
as §1
This example describes conditions used for RNA isolation and Northern blot analysis. Total RNA from corollas of cucumber flower buds was isolated as described previously. RNA (15 and 25 μg) was fractionated through a 1.2% formaldehyde gel and transferred to a Hybond-N^− filter (Amersham Corp.). A random priming kit (Boehringer Mannheim) was used to radioactively labeled DNA probes. The blots were hybridized with ^32P-labeled cucumber CHRC cDNA (Vishnevetsky, et al., Plant Journal, 10: 1111-1118 (1996)) and reprobed with melon phytoene synthase (PSY) cDNA (MEL5), provided by D. Grierson of the Nottingham University, UK. The hybridization for analysis of CHRC expression was carried out in 0.263 M Na2HPO4, 7% SDS, […], 1% BSA for 16 hours at 60° C., and the washes were performed in 2×SSC/0.1% SDS at 50° C. followed by 2×SSC/0.1% SDS at 55° C., for 20 minutes each. Hybridization with the MEL5 probe was carried out at 55° C. using the same procedure. Following the hybridization, the blots were washed in 5×SSC/0.1% SDS at 45° C. for 20 minutes followed by 5×SSC/0.1% SDS at 50° C. and 2×SSC/0.1% SDS at 50° C. for 20 minutes each. […]

## CC1=CC(=O)CC(C)(C)[C@@]1(O)/C=C/C(C)=C\C(=O)O [ABA, abscisic acid]
[1]
  CHRD level per unit protein, down-regulation compared with control untreated corollas: 2.5±0.3 times
[2]
  Down-regulation of CHRC expression: only slightly down-regulated
[3]
  Effect on Psy mRNA levels: Neither ABA nor paclobutrazol markedly affected
[4]
  Down-regulation of CHRC mRNA level compared with control corollas: 2.5 times
